Test results published in patent US20140249135A1, “PIM KINASE INHIBITORS AND METHODS OF THEIR USE” (NOVARTIS AG, priority 2007, published 2014).

Legend:
[1] = target: Pim1 kinase (Homo sapiens, UniProt P11309); experiment: Pim1 ATP depletion assay; format: biochemical; details: Pim1 ATP depletion assay; read-out: IC50 (μM) PIM1;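 further: Luciferase-luciferin luminescence readout of residual ATP after PIM1 transfers phosphate to a peptide substrate, 40 µM ATP added, reaction run to roughly half ATP consumption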
Pim1 kinase, sequence (P11309 whole entry): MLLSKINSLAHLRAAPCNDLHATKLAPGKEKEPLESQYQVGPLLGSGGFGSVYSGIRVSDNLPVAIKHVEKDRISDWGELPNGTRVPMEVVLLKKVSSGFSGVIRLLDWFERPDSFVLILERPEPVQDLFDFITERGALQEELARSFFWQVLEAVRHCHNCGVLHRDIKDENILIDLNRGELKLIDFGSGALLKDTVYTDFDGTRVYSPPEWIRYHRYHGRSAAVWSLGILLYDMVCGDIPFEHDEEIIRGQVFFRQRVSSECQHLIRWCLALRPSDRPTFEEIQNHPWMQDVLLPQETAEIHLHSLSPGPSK

[2] = target: Pim2 kinase (Homo sapiens, UniProt Q9P1W9); experiment: Pim2 ATP depletion assay; format: biochemical; details: read-out: IC50 (μM) PIM2;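 further: Luciferase-based luminescent readout of ATP remaining after PIM2 phosphorylates a BAD peptide, final 5 nM enzyme, 4 µM ATP, 10 µM peptide, 2.5% DMSO, run to roughly half ATP consumption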
Pim2 kinase, sequence (Q9P1W9 whole entry): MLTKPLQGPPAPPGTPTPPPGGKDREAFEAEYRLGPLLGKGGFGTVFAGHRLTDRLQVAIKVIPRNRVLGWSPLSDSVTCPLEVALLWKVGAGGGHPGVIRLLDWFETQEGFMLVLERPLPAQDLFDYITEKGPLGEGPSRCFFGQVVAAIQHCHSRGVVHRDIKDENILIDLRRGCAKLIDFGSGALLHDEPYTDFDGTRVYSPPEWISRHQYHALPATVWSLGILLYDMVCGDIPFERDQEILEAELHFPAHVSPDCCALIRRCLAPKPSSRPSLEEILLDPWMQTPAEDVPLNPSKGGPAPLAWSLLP

[3] = target: Pim3 kinase (Homo sapiens, UniProt Q86V86); experiment: Pim3 ATP depletion assay; format: biochemical; details: read-out: IC50 (μM) PIM3
[4] = target: T1, Flt3 kinase (Homo sapiens, UniProt P36888); experiment: Flt3 AlphaScreen assay
T1 sequence (P36888 27-993): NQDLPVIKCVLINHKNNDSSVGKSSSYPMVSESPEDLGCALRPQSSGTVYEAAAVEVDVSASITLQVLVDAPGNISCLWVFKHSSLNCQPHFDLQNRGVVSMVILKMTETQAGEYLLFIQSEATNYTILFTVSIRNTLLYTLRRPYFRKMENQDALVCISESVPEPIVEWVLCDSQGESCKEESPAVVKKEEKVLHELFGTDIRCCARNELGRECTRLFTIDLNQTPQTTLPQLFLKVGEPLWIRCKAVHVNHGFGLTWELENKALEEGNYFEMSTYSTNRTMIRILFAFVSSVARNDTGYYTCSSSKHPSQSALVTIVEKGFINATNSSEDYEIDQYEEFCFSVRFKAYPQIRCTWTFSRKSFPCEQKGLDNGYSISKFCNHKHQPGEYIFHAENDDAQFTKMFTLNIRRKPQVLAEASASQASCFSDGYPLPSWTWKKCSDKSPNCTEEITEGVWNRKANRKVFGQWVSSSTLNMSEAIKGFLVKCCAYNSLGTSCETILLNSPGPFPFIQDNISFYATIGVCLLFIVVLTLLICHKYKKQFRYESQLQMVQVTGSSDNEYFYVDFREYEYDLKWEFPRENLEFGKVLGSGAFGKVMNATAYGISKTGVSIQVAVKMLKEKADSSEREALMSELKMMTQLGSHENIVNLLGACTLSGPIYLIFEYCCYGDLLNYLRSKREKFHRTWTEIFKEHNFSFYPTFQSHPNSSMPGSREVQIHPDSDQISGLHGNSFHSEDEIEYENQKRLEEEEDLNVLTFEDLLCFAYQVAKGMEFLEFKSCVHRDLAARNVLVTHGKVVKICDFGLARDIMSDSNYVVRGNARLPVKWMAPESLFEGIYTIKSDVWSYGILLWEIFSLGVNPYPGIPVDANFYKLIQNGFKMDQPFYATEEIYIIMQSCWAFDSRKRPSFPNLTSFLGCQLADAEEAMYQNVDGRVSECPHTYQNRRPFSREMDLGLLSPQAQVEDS

[5] = target: T2, human full length PKCE enzyme (Homo sapiens, UniProt Q02156); experiment: In vitro PKCE assay; format: biochemical; details: 10 nM enzyme, 40 uM peptide substrate, 20 uM ATP, KinaseGlo Plus readout; read-out: PKCε IC50
T2 construct: human full length PKCE enzyme purchased from InVitrogen; purchased InVitrogen
T2 sequence (Q02156 1-737): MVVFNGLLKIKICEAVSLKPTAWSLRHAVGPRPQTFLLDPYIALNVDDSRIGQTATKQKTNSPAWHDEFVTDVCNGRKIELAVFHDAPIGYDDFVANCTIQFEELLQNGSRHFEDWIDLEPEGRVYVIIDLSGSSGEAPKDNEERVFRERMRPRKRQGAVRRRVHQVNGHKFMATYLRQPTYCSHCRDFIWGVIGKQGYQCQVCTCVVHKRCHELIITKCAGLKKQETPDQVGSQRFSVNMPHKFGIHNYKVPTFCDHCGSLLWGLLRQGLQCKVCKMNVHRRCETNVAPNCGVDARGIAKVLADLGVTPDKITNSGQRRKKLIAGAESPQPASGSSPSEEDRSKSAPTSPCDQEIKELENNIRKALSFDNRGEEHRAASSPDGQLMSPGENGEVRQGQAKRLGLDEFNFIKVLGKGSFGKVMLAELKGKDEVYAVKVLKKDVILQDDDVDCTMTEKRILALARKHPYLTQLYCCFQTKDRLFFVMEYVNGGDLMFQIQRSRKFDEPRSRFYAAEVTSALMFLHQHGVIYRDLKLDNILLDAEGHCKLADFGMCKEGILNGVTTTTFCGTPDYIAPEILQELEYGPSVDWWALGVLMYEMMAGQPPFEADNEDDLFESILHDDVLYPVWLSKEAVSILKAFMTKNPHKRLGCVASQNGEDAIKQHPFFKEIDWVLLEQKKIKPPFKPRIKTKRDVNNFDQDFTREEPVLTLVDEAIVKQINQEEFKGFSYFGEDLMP

- IC50 [1]: 1 to 10 µM
- IC50 [2]: > 25 µM
- IC50 [3]: 1 to 10 µM
- IC50 [4]: 10 to 25 µM
- IC50 [5]: 10 to 25 µM
SMILES: CN(C)CCN(C)c1ccncc1NC(=O)c1nc(Br)cnc1N [Example 124, 3-amino-6-bromo-N-(4-{[2-(dimethylamino)ethyl]-(methyl)amino}pyridin-3-yl)pyrazine-2-carboxamide]
